Laboratory results: ChEMBL document CHEMBL1158270, “Triangulynes A-H and trangulynic acid, new cytotxic polyacetylenes from the marine sponge Pellina triangulata” (1996)

Columns and labels:
Assay type in all cases: functional
CCRF-CEM = experiment: Cytotoxicity against human CCRF-CEM cells
HL-60 = experiment: Cytotoxicity against human HL60 cells
MOLT-4 = experiment: Cytotoxicity against human MOLT4 cells
RPMI-8226 = experiment: Cytotoxicity against human RPMI8226 cells
SR = experiment: Cytotoxicity against human SR cells
A549 = experiment: Cytotoxicity against human A549 cells
EKVX = experiment: Cytotoxicity against human EKVX cells
HOP-62 = experiment: Cytotoxicity against human HOP62 cells
NCI-H226 = experiment: Cytotoxicity against human NCI-H226 cells
NCI-H23 = experiment: Cytotoxicity against human NCI-H23 cells
NCI-H460 = experiment: Cytotoxicity against human NCI-H460 cells
NCI-H522 = experiment: Cytotoxicity against human NCI-H522 cells
COLO 205 = experiment: Cytotoxicity against human COLO205 cells
HCT-116 = experiment: Cytotoxicity against human HCT116 cells
HCT-15 = experiment: Cytotoxicity against human HCT15 cells
HT-29 = experiment: Cytotoxicity against human HT29 cells
SW-620 = experiment: Cytotoxicity against human SW620 cells
SF-268 = experiment: Cytotoxicity against human SF268 cells
SF-539 = experiment: Cytotoxicity against human SF539 cells
SNB-19 = experiment: Cytotoxicity against human SNB19 cells
SNB-75 = experiment: Cytotoxicity against human SNB75 cells
U-251 = experiment: Cytotoxicity against human U251 cells
Malme-3M = experiment: Cytotoxicity against human MALME-3M cells
M14 = experiment: Cytotoxicity against human M14 cells
SK-MEL-28 = experiment: Cytotoxicity against human SK-MEL-28 cells
SK-MEL-5 = experiment: Cytotoxicity against human SK-MEL-5 cells
UACC-257 = experiment: Cytotoxicity against human UACC257 cells
UACC-62 = experiment: Cytotoxicity against human UACC62 cells
IGROV-1 = experiment: Cytotoxicity against human IGROV1 cells
OVCAR-3 = experiment: Cytotoxicity against human OVCAR-3 cells
OVCAR-4 = experiment: Cytotoxicity against human OVCAR4 cells
OVCAR-5 = experiment: Cytotoxicity against human OVCAR5 cells
SK-OV-3 = experiment: Cytotoxicity against human SKOV3 cells
A498 = experiment: Cytotoxicity against human A498 cells
ACHN = experiment: Cytotoxicity against human ACHN cells
CAKI-1 = experiment: Cytotoxicity against human Caki1 cells
RXF 393 = experiment: Cytotoxicity against human RXF393 cells
SN12C = experiment: Cytotoxicity against human SN12C cells
UO-31 = experiment: Cytotoxicity against human UO31 cells
DU-145 = experiment: Cytotoxicity against human DU145 cells
MCF7 = experiment: Cytotoxicity against human MCF7 cells
MDA-MB-231 = experiment: Cytotoxicity against human MDA-MB-231 cells
MDA-N = experiment: Cytotoxicity against human MDA-N cells
T47D = experiment: Cytotoxicity against human T47D cells
PC-3 = experiment: Cytotoxicity against human PC3 cells
[1] = read-out: pLC50 (the source's name) (converted)

C#C[C@H](O)/C=C/CCCCCCCCCC/C=C\CCCCCCC[C@H](O)C#CC#CC#CCO [TRIANGULYNE A]
GI50 (CCRF-CEM): 170 nM
LC50 (CCRF-CEM): 33900 nM
TGI (CCRF-CEM; read-out: pTGI (converted)): 776 nM
GI50 (HL-60): 83.2 nM
LC50 (HL-60): 25100 nM
TGI (HL-60; read-out: pTGI (converted)): 3630 nM
GI50 (MOLT-4): 209 nM
CC50 (MOLT-4; [1]): 67600 nM
TGI (MOLT-4; read-out: pTGI (converted)): 813 nM
GI50 (RPMI-8226): 30.9 nM
LC50 (RPMI-8226): 100000 nM
TGI (RPMI-8226; read-out: pTGI (converted)): 1000 nM
GI50 (SR): 182 nM
LC50 (SR): 100000 nM
TGI (SR; read-out: pTGI (converted)): 3240 nM
GI50 (A549): 339 nM
CC50 (A549; [1]): 47900 nM
TGI (A549; read-out: pTGI (converted)): 5750 nM
GI50 (EKVX): 871 nM
CC50 (EKVX; [1]): 6760 nM
TGI (EKVX; read-out: pTGI (converted)): 2400 nM
GI50 (HOP-62): 1580 nM
CC50 (HOP-62; [1]): 75900 nM
TGI (HOP-62; read-out: pTGI (converted)): 5370 nM
GI50 (NCI-H226): 603 nM
CC50 (NCI-H226; [1]): 8130 nM
TGI (NCI-H226; read-out: pTGI (converted)): 1910 nM
GI50 (NCI-H23): 257 nM
CC50 (NCI-H23; [1]): 14100 nM
TGI (NCI-H23; read-out: pTGI (converted)): 1290 nM
GI50 (NCI-H460): 347 nM
CC50 (NCI-H460; [1]): 42700 nM
TGI (NCI-H460; read-out: pTGI (converted)): 1820 nM
GI50 (NCI-H522): 151 nM
CC50 (NCI-H522; [1]): 646 nM
TGI (NCI-H522; read-out: pTGI (converted)): 380 nM
GI50 (COLO 205): 200 nM
LC50 (COLO 205): 2290 nM
TGI (COLO 205; read-out: pTGI (converted)): 417 nM
GI50 (HCT-116): 129 nM
LC50 (HCT-116): 3470 nM
TGI (HCT-116; read-out: pTGI (converted)): 661 nM
GI50 (HCT-15): 407 nM
LC50 (HCT-15): 7240 nM
TGI (HCT-15; read-out: pTGI (converted)): 2090 nM
GI50 (HT-29): 363 nM
LC50 (HT-29): 3630 nM
TGI (HT-29; read-out: pTGI (converted)): 1290 nM
GI50 (SW-620): 339 nM
LC50 (SW-620): 9330 nM
TGI (SW-620; read-out: pTGI (converted)): 1290 nM
GI50 (SF-268): 347 nM
CC50 (SF-268; [1]): 12900 nM
TGI (SF-268; read-out: pTGI (converted)): 3890 nM
GI50 (SF-539): 1100 nM
CC50 (SF-539; [1]): 19100 nM
TGI (SF-539; read-out: pTGI (converted)): 3310 nM
GI50 (SNB-19): 3390 nM
CC50 (SNB-19; [1]): 52500 nM
TGI (SNB-19; read-out: pTGI (converted)): 12000 nM
GI50 (SNB-75): 2000 nM
CC50 (SNB-75; [1]): 15800 nM
TGI (SNB-75; read-out: pTGI (converted)): 6610 nM
GI50 (U-251): 813 nM
CC50 (U-251; [1]): 5250 nM
TGI (U-251; read-out: pTGI (converted)): 2190 nM
GI50 (Malme-3M): 251 nM
LC50 (Malme-3M): 1910 nM
TGI (Malme-3M; read-out: pTGI (converted)): 646 nM
GI50 (M14): 158 nM
LC50 (M14): 3470 nM
TGI (M14; read-out: pTGI (converted)): 813 nM
GI50 (SK-MEL-28): 708 nM
CC50 (SK-MEL-28; [1]): 12000 nM
TGI (SK-MEL-28; read-out: pTGI (converted)): 2290 nM
GI50 (SK-MEL-5): 72.4 nM
CC50 (SK-MEL-5; [1]): 479 nM
TGI (SK-MEL-5; read-out: pTGI (converted)): 200 nM
GI50 (UACC-257): 513 nM
CC50 (UACC-257; [1]): 8130 nM
TGI (UACC-257; read-out: pTGI (converted)): 2090 nM
GI50 (UACC-62): 229 nM
CC50 (UACC-62; [1]): 9120 nM
TGI (UACC-62; read-out: pTGI (converted)): 646 nM
GI50 (IGROV-1): 490 nM
CC50 (IGROV-1; [1]): 8130 nM
TGI (IGROV-1; read-out: pTGI (converted)): 1820 nM
GI50 (OVCAR-3): 372 nM
CC50 (OVCAR-3; [1]): 5250 nM
TGI (OVCAR-3; read-out: pTGI (converted)): 1510 nM
GI50 (OVCAR-4): 851 nM
CC50 (OVCAR-4; [1]): 38000 nM
TGI (OVCAR-4; read-out: pTGI (converted)): 6310 nM
GI50 (OVCAR-5): 4470 nM
CC50 (OVCAR-5; [1]): 34700 nM
TGI (OVCAR-5; read-out: pTGI (converted)): 12000 nM
GI50 (SK-OV-3): 2820 nM
CC50 (SK-OV-3; [1]): 37200 nM
TGI (SK-OV-3; read-out: pTGI (converted)): 7940 nM
GI50 (A498): 525 nM
CC50 (A498; [1]): 5250 nM
TGI (A498; read-out: pTGI (converted)): 1580 nM
GI50 (ACHN): 776 nM
CC50 (ACHN; [1]): 32400 nM
TGI (ACHN; read-out: pTGI (converted)): 7240 nM
GI50 (CAKI-1): 251 nM
CC50 (CAKI-1; [1]): 3390 nM
TGI (CAKI-1; read-out: pTGI (converted)): 676 nM
GI50 (RXF 393): 339 nM
CC50 (RXF 393; [1]): 18200 nM
TGI (RXF 393; read-out: pTGI (converted)): 1290 nM
GI50 (SN12C): 1410 nM
CC50 (SN12C; [1]): 32400 nM
TGI (SN12C; read-out: pTGI (converted)): 11000 nM
GI50 (UO-31): 1290 nM
CC50 (UO-31; [1]): 5500 nM
TGI (UO-31; read-out: pTGI (converted)): 2690 nM
GI50 (DU-145): 1410 nM
CC50 (DU-145; [1]): 18200 nM
TGI (DU-145; read-out: pTGI (converted)): 5500 nM
GI50 (MCF7): 1580 nM
CC50 (MCF7; [1]): 25700 nM
TGI (MCF7; read-out: pTGI (converted)): 6030 nM
GI50 (MDA-MB-231): 229 nM
CC50 (MDA-MB-231; [1]): 9120 nM
TGI (MDA-MB-231; read-out: pTGI (converted)): 603 nM
GI50 (MDA-N): 240 nM
CC50 (MDA-N; [1]): 8510 nM
TGI (MDA-N; read-out: pTGI (converted)): 3090 nM
GI50 (T47D): 1510 nM
CC50 (T47D; [1]): 47900 nM
TGI (T47D; read-out: pTGI (converted)): 7240 nM
GI50 (PC-3): 191 nM
CC50 (PC-3; [1]): 10000 nM
TGI (PC-3; read-out: pTGI (converted)): 1100 nM
